As usually defined, the IC50 is the concentration at which inhibition is half-maximal.

This is an account of results in patent publication US10660877B2 (BRISTOL-MYERS SQUIBB COMPANY, priority 2016, dated 2020).

One assay concerns the target human TLR7 (Homo sapiens (Human), UniProt Q9NYK1). The assay is described as follows: TLR7 inhibition reporter assay (HEK-Blue cells, SEAP reporter, gardiquimod stimulation). In kind it is cell-based. Particulars: HEK-Blue cells overexpressing human TLR7, gardiquimod 7.5 μM.
In another assay the target is human TLR8 (Homo sapiens (Human), UniProt Q9NR97). The assay is described as follows: TLR8 inhibition reporter assay (HEK-Blue cells, SEAP reporter, R848 stimulation).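 Further: compounds tested from 0.05 nM to 50 µM, 22 h at 37 °C, SEAP measured with HEK-Blue Detection, inhibition relative to agonist plus DMSO versus a known inhibitor.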 The following applies: read-out: TLR8 IC50, HEK-Blue cells overexpressing human TLR8, R848 15.9 μM. On the technique in general: A reporter such as luciferase makes a cellular process visible.
human TLR8, sequence (Q9NR97 27-1041): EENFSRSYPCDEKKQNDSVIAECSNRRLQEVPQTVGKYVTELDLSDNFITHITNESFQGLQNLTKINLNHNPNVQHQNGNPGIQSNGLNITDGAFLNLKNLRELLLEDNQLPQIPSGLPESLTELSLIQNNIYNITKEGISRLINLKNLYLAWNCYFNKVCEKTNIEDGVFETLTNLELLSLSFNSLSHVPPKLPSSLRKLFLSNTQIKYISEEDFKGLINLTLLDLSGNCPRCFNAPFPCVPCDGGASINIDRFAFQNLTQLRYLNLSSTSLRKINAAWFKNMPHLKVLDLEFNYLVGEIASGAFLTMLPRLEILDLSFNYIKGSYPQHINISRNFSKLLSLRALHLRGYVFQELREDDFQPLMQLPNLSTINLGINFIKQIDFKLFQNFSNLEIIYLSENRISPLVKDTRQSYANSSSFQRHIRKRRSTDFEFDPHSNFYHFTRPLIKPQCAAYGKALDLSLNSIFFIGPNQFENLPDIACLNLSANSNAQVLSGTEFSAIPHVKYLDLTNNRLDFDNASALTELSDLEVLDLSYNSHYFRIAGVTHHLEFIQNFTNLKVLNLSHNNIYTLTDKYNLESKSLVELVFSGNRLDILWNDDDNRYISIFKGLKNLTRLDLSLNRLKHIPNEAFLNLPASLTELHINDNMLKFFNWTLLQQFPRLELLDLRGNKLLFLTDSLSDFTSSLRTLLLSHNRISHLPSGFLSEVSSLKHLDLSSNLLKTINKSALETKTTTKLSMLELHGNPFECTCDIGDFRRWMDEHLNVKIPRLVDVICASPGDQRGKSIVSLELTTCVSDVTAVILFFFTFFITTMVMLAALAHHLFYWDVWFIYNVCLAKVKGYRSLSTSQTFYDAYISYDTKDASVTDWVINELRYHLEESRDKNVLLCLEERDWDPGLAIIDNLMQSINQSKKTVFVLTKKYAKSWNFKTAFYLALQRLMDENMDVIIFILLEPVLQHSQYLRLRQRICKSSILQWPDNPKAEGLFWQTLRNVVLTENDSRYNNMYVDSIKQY
A further assay concerns the target human TLR9 (Homo sapiens (Human), UniProt Q9NR96). Briefly: TLR9 inhibition reporter assay (HEK-Blue cells, SEAP reporter, ODN2006 stimulation).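 Further: compounds tested over 0.05 nM to 50 µM, 22 h incubation, inhibition taken as SEAP signal drop from agonist plus DMSO wells toward a known inhibitor control.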 The following applies: read-out: TLR9 IC50, HEK-Blue cells overexpressing human TLR9, ODN2006 5 nM.

Bounds are passed on as bounds.

human TLR9, sequence (Q9NR96 26-1032): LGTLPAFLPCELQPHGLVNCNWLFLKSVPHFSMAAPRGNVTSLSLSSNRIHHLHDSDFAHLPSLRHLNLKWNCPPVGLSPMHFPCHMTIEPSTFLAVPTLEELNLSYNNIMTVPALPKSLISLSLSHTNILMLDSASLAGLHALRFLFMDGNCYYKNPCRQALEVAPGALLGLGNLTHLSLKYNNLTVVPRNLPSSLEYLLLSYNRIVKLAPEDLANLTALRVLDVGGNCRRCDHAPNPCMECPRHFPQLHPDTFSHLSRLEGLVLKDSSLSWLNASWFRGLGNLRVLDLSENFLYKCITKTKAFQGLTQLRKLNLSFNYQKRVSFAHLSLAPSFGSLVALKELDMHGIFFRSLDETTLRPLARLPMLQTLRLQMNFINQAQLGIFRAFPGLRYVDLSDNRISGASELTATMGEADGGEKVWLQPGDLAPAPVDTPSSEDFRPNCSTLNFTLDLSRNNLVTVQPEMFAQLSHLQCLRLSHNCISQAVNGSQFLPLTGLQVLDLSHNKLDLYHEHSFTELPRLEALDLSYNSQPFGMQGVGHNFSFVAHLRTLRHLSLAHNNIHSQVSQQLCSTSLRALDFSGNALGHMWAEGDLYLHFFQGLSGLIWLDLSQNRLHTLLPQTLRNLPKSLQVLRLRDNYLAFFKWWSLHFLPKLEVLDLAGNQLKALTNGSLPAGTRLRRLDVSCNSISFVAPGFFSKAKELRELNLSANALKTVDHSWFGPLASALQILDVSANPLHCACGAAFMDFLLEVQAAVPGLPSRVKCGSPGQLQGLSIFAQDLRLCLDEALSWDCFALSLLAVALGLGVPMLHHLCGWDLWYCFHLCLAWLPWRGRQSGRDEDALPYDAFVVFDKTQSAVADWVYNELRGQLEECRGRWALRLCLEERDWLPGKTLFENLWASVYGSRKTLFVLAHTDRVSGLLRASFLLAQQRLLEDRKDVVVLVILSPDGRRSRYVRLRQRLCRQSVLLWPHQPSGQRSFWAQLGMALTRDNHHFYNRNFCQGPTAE
human TLR7, sequence (Q9NYK1 27-1049): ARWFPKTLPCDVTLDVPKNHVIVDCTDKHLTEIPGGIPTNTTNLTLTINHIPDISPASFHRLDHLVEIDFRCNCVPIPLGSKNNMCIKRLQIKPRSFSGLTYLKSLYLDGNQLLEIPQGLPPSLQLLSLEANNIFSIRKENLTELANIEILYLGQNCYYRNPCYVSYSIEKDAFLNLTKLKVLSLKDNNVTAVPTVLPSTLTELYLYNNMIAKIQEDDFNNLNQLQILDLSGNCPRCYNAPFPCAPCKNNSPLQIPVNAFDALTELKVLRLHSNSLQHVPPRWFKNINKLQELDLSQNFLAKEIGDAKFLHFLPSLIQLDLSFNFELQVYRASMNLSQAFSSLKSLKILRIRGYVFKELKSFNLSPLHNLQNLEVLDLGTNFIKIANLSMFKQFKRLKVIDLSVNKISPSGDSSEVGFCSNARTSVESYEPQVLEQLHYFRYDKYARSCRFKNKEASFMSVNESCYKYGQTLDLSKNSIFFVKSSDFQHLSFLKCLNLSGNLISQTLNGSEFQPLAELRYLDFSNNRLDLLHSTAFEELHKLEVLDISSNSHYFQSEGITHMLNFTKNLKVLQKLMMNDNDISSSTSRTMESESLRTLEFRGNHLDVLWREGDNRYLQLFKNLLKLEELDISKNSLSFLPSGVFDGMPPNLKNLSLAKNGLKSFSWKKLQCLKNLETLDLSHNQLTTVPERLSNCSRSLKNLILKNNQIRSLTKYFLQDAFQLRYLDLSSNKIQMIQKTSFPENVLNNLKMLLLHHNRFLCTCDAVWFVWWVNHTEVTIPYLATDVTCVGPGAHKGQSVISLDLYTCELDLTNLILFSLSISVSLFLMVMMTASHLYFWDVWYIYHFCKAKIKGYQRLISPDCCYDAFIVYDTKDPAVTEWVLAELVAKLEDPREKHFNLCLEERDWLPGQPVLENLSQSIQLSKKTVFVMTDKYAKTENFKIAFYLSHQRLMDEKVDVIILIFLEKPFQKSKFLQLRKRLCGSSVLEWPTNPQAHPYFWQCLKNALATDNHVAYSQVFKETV

Take `CCc1c(-c2ccnc(C)c2)[nH]c2ccc(C3CCN(C)CC3)cc12` [Example 670, 3-ethyl-5-(1-methylpiperidin-4-yl)-2-(2-methylpyridin-4-yl)-1H-indole]: the IC50 against human TLR7 was determined as 68.1 nM; at human TLR8 it was 64.8 nM; at human TLR9 it was 663 nM.
For `CCN(CC)CCCN1CCC(c2ccc3[nH]c(-c4cc(C)nc(C)c4)c(C(C)C)c3c2)CC1` [Example 671, 3-(4-(2-(2,6-dimethylpyridin-4-yl)-3-isopropyl-1H-indol-5-yl)piperidin-1-yl)-N,N-diethylpropan-1-amine], in that order: 0.6 nM, 2.6 nM and 76 nM.
For `CCc1c(-c2ccnc(C)c2)[nH]c2ccc(C3CCN(C(C)C)CC3)cc12` [Example 672, 3-ethyl-5-(1-isopropylpiperidin-4-yl)-2-(2-methylpyridin-4-yl)-1H-indole], in that order: 252 nM, 116 nM and 894 nM.
Taken in the same sequence, the figures for `CCc1c(-c2ccnc(C)c2)[nH]c2ccc(C3CCN(CCCN(C)C)CC3)cc12` [Example 673, 3-(4-(3-ethyl-2-(2-methylpyridin-4-yl)-1H-indol-5-yl)piperidin-1-yl)-N,N-dimethylpropan-1-amine] were 70.5 nM, 23.1 nM and 287 nM.
`Cc1cc(-c2[nH]c3ccc(C4CCN(CCCN(C)C)CC4)cc3c2C(C)C)cc(C)n1` [Example 674, 3-(4-(2-(2,6-dimethylpyridin-4-yl)-3-isopropyl-1H-indol-5-yl)piperidin-1-yl)-N,N-dimethylpropan-1-amine]: the results for the half-maximal inhibitory concentration (IC50) at human TLR7, on human TLR8 and on human TLR9 were 0.8 nM, 2.8 nM and 156 nM, respectively.
Regarding `CCc1c(-c2ccnc(C)c2)[nH]c2ccc(C3CCN(CC4CCN(C(C)C)CC4)CC3)cc12` [Example 675, 3-ethyl-5-(1-((1-isopropylpiperidin-4-yl)methyl)piperidin-4-yl)-2-(2-methylpyridin-4-yl)-1H-indole], the IC50 was 44.7 nM against human TLR7, 11.9 nM on human TLR8 and 42 nM on human TLR9.
Taken in the same sequence, the figures for `Cc1cc(-c2[nH]c3ccc(C4CCN(CCC(F)(F)F)CC4)cc3c2C(C)C)ccn1` [Example 676, 3-isopropyl-2-(2-methylpyridin-4-yl)-5-(1-(3,3,3-trifluoropropyl)piperidin-4-yl)-1H-indole] were 19 nM, 12.3 nM and 1930 nM.
Taken in the same sequence, the figures for `Cc1cc(-c2[nH]c3ccc(C4CCN(CCC(F)(F)F)CC4)cc3c2C(C)C)cc(C)n1` [Example 677, 2-(2,6-dimethylpyridin-4-yl)-3-isopropyl-5-(1-(3,3,3-trifluoropropyl)piperidin-4-yl)-1H-indole] were 3.4 nM, 6.7 nM and 1690 nM.
With `Cc1cc(-c2[nH]c3ccc(C4CCN(C(=O)CN(C)C5COC5)CC4)cc3c2C(C)C)c(F)cn1` [Example 678, 1-(4-(2-(5-fluoro-2-methylpyridin-4-yl)-3-isopropyl-1H-indol-5-yl)piperidin-1-yl)-2-(methyl(oxetan-3-yl)amino)ethan-1-one], the half-maximal inhibitory concentration (IC50) against human TLR7 is 12.3 nM; on human TLR8, 30.6 nM; on human TLR9, over 50000 nM.
`Cc1cc(-c2[nH]c3ccc(C4CCN(C(=O)CN(C)CCC#N)CC4)cc3c2C(C)C)c(F)cn1` [Example 679, 3-((2-(4-(2-(5-fluoro-2-methylpyridin-4-yl)-3-isopropyl-1H-indol-5-yl)piperidin-1-yl)-2-oxoethyl)(methyl)amino)propanenitrile]: the values for the IC50 against human TLR7, at human TLR8 and at human TLR9 were 12.7 nM, 19.8 nM and 4380 nM, respectively.
Regarding `Cc1cc(-c2[nH]c3ccc(C4CCN(C(=O)CN(C)CCO)CC4)cc3c2C(C)C)c(F)cn1` [Example 680, 1-(4-(2-(5-fluoro-2-methylpyridin-4-yl)-3-isopropyl-1H-indol-5-yl)piperidin-1-yl)-2-((2-hydroxyethyl)(methyl)amino)ethan-1-one], the figures for the IC50 against human TLR7, on human TLR8 and on human TLR9 were 2 nM, 4 nM and 2970 nM, respectively.
As to `Cc1cc(-c2[nH]c3ccc(C4CCN(Cc5ccn[nH]5)CC4)cc3c2C(C)C)c(C)cn1` [Example 681, 5-(1-((1H-pyrazol-5-yl)methyl)piperidin-4-yl)-2-(2,5-dimethylpyridin-4-yl)-3-isopropyl-1H-indole], the values for the IC50 against human TLR7, on human TLR8 and at human TLR9 were 15.5 nM, 0.6 nM and 1530 nM, respectively.
Taken in the same sequence, the figures for `Cc1cc(-c2[nH]c3ccc(C4CCN(Cc5ccn[nH]5)CC4)cc3c2C(C)C)c(F)cn1` [Example 682, 5-(1-((1H-pyrazol-5-yl)methyl)piperidin-4-yl)-2-(5-fluoro-2-methylpyridin-4-yl)-3-isopropyl-1H-indole] were 7.5 nM, 1.7 nM and 2720 nM.
Taken in the same sequence, the figures for `Cc1cc(-c2[nH]c3ccc(C4CCN(Cc5cc(C)on5)CC4)cc3c2C(C)C)c(C)cn1` [Example 685, 3-((4-(2-(2,5-dimethylpyridin-4-yl)-3-isopropyl-1H-indol-5-yl)piperidin-1-yl)methyl)-5-methylisoxazole] were 62.5 nM, 3.4 nM and 7510 nM.
For `Cc1cc(-c2[nH]c3ccc(C4CCN(Cc5cc(C)on5)CC4)cc3c2C(C)C)c(F)cn1` [Example 686, 3-((4-(2-(5-fluoro-2-methylpyridin-4-yl)-3-isopropyl-1H-indol-5-yl)piperidin-1-yl)methyl)-5-methylisoxazole], in that order: 35.2 nM, 4.1 nM and 9450 nM.
As to `Cc1cc(-c2[nH]c3ccc(C4CCN(Cc5cncs5)CC4)cc3c2C(C)C)c(C)cn1` [Example 687, 5-((4-(2-(2,5-dimethylpyridin-4-yl)-3-isopropyl-1H-indol-5-yl)piperidin-1-yl)methyl)thiazole], the IC50 against human TLR7 was 25.6 nM; on human TLR8, 1.8 nM; at human TLR9 it was 4920 nM.
As for `Cc1cc(-c2[nH]c3ccc(C4CCN(Cc5cncs5)CC4)cc3c2C(C)C)c(F)cn1` [Example 688, 5-((4-(2-(5-fluoro-2-methylpyridin-4-yl)-3-isopropyl-1H-indol-5-yl)piperidin-1-yl)methyl)thiazole], the IC50 against human TLR7 worked out at 12.1 nM; on human TLR8 it was 2 nM; on human TLR9, 6190 nM.
Taken in the same sequence, the figures for `Cc1cc(-c2[nH]c3ccc(C4CCN(Cc5ccn(C)n5)CC4)cc3c2C(C)C)c(C)cn1` [Example 689, 2-(2,5-dimethylpyridin-4-yl)-3-isopropyl-5-(1-((1-methyl-1H-pyrazol-3-yl)methyl)piperidin-4-yl)-1H-indole] were 23.2 nM, 0.8 nM and 1440 nM.
Taken in the same sequence, the figures for `Cc1cc(-c2[nH]c3ccc(C4CCN(Cc5c[nH]nn5)CC4)cc3c2C(C)C)c(C)cn1` [Example 690, 5-(1-((1H-1,2,3-triazol-4-yl)methyl)piperidin-4-yl)-2-(2,5-dimethylpyridin-4-yl)-3-isopropyl-1H-indole] were 11 nM, 1.9 nM and 3510 nM.
As to `Cc1cc(-c2[nH]c3ccc(C4CCN(Cc5c[nH]nn5)CC4)cc3c2C(C)C)c(F)cn1` [Example 691], the IC50 on human TLR7 worked out at 7 nM; on human TLR8 it was 2.6 nM; at human TLR9, 2570 nM.
Taken in the same sequence, the figures for `Cc1cc(-c2[nH]c3ccc(C4CCN(Cc5ccn(C)n5)CC4)cc3c2C(C)C)c(F)cn1` [Example 692] were 10.3 nM, 0.9 nM and 1480 nM.
Taken in the same sequence, the figures for `COc1cc(OC)nc(CN2CCC(c3ccc4[nH]c(-c5cc(C)ncc5C)c(C(C)C)c4c3)CC2)n1` [Example 693, 5-(1-((4,6-dimethoxypyrimidin-2-yl)methyl)piperidin-4-yl)-2-(2,5-dimethylpyridin-4-yl)-3-isopropyl-1H-indole] were 33.1 nM, 5.2 nM and 1680 nM.
With `COc1cc(OC)nc(CN2CCC(c3ccc4[nH]c(-c5cc(C)ncc5F)c(C(C)C)c4c3)CC2)n1` [Example 694, 5-(1-((4,6-dimethoxypyrimidin-2-yl)methyl)piperidin-4-yl)-2-(5-fluoro-2-methylpyridin-4-yl)-3-isopropyl-1H-indole], the IC50 amounted to 20.7 nM against human TLR7, 7.8 nM at human TLR8 and 3690 nM on human TLR9.
Take `Cc1cc(-c2[nH]c3ccc(C4CCN(Cc5nnn[nH]5)CC4)cc3c2C(C)C)c(C)cn1` [Example 695, 5-(1-((1H-tetrazol-5-yl)methyl)piperidin-4-yl)-2-(2,5-dimethylpyridin-4-yl)-3-isopropyl-1H-indole]: the IC50 on human TLR7 was 1310 nM; on human TLR8, 111 nM; at human TLR9 it was over 50000 nM.
For `Cc1cc(-c2[nH]c3ccc(C4CCN(Cc5nnn[nH]5)CC4)cc3c2C(C)C)c(F)cn1` [Example 696, 5-(1-((1H-tetrazol-5-yl)methyl)piperidin-4-yl)-2-(5-fluoro-2-methylpyridin-4-yl)-3-isopropyl-1H-indole], in that order: 408 nM, 104 nM and over 50000 nM.
For `Cc1cc(-c2[nH]c3ccc(C4CCN(Cc5nnc(C6CC6)o5)CC4)cc3c2C(C)C)c(C)cn1` [Example 697, 2-cyclopropyl-5-((4-(2-(2,5-dimethylpyridin-4-yl)-3-isopropyl-1H-indol-5-yl)piperidin-1-yl)methyl)-1,3,4-oxadiazole], in that order: 223 nM, 20.7 nM and over 50000 nM.
